{
  "source": "paper PMC7433010",
  "about": "“Exploration of multi‐target effects of 3‐benzoyl‐5‐hydroxychromen‐2‐one in Alzheimer’s disease cell and mouse models” (Aging Cell, 2020)",
  "key": {"NRF2": {"system": "NRF2", "test": "Western blot of NRF2 in ∆K280 TauRD‐DsRed SH‐SY5Y cells", "type": "cell-based, human", "details": "1 µM", "description": "To knock down CREB expression in ∆K280 TauRD-DsRed SH-SY5Y cells, lentiviral short hairpin RNA (shRNA) targeting CREB (TRCN0000226466), NRF2 (TRCN0000007558), and a negative control scrambled (TRC2.Void) were obtained from National RNAi Core Facility, IMB/GRC, Academia Sinica, Taipei, Taiwan. On day 1, cells were plated on 6-well plates (for protein analysis) or 24-well plates (for neurite outgrowth analysis) in the presence of retinoic acid as described. On the second day, the cells were infected with lentivirus (multiplicity of infection: 3) in medium with polybrene (8 µg/mL; Sigma-Aldrich). On day 3, the culture medium was changed and the cells were pretreated with LM-031 (1 µM) for 8 h, followed by induction of ∆K280 TauRD-DsRed expression. On day 9, the cells were collected for NRF2, CREB, pCREB, and cleaved CASP3 protein analysis or analyzed for neurite outgrowth as described.\n(§1) Total proteins from ∆K280 TauRD-DsRed SH-SY5Y cells were obtained using a RIPA buffer containing 50 mM Tris-HCl (pH8.0), 150 mM NaCl, 2 mM EDTA (pH8.0), 50 mM NaF, 0.1% SDS, 0.5% sodium deoxycholate, 1% NP40, and a protease inhibitor cocktail (Sigma-Aldrich). After sonication and sitting on ice for 20 min, the lysates were centrifuged at 14,000 × g for 30 min at 4°C. Protein concentrations were determined using a protein assay kit (Bio-Rad, Hercules, CA, USA), with albumin as a standard. Total proteins (20 µg) were electrophoresed on 10% or 12% SDS-polyacrylamide gel and transferred onto polyvinylidene difluoride (PVDF) membranes (Sigma-Aldrich) through reverse electrophoresis. […] Subsequently, immune complexes were detected using a horseradish peroxidase-conjugated goat anti-mouse or goat anti-rabbit IgG antibody (1:5000; GeneTex, Irvive, CA, USA) and a chemiluminescent substrate (Millipore)."}, "BCL2": {"system": "BCL2", "test": "Western blot of BCL2 in ∆K280 TauRD‐DsRed SH‐SY5Y cells", "type": "cell-based, human", "details": "1 µM; induced untreated 83%, uninduced 100%", "description": "as §1"}, "GADD45B": {"system": "GADD45B", "test": "Western blot of GADD45B in ∆K280 TauRD‐DsRed SH‐SY5Y cells", "type": "cell-based, human", "details": "1 µM; induced untreated 65%, uninduced 100%", "description": "as §1"}, "pAKT (S473)": {"system": "pAKT (S473)", "test": "Western blot of pAKT (S473) in ∆K280 TauRD‐DsRed SH‐SY5Y cells", "type": "cell-based, human", "details": "induced untreated 84%, uninduced 100%", "description": "as §1\nFigure S4. ΔK280 TauRD-DsRed SH-SY5Y cells. […] On day 9, neurite outgrowth and caspase 3 activity were measured. In addition, expression of HSPB1, NRF2, and CREB pathways were assessed. (b) Relative AKT, pAKT, ERK, and pERK protein levels analyzed through immunoblotting. […]"}, "sarkosyl‐insoluble Tau": {"system": "sarkosyl‐insoluble Tau", "test": "TEM of sarkosyl‐insoluble Tau from STZ‐treated 3 × Tg‐AD mice", "type": "in vivo, mouse", "details": "STZ/LM‐031 mice", "description": "Figure S7. Body weight, blood glucose, open field task, NeuN immunoreactivity, and TEM of sarkosyl-insoluble tau in STZ-treated 3×Tg-AD mice. (a) Body weight and blood glucose of the mice. […] (c) Representative IHC images for NeuN and intensity quantification in the hippocampus of mice. DG, dentate gyrus; CA1 and CA3, Cornu Ammonis areas 1 and 3. (d) TEM of sarkosyl-insoluble tau. p values, STZ vs. – STZ mice or STZ/LM-031 vs. STZ mice. *: p < 0.05, ^##: p < 0.01, ^##^#: p < 0.001. (one-way ANOVA with a post hoc Tukey test)"}},
  "data": [
    {"smiles": "O=C(c1ccccc1)c1cc2c(O)cccc2oc1=O", "note": "[LM‐031, 3‐benzoyl‐5‐hydroxychromen‐2‐one]", "values": [
      {"measurement": "NRF2 protein level", "setting": "NRF2; induced untreated 75%, uninduced 100%", "value": 109, "unit": "%"},
      {"measurement": "NRF2 level", "setting": "NRF2; NRF2‐specific shRNA‐infected cells, untreated 74%", "value": 98, "unit": "%"},
      {"measurement": "NRF2 level", "setting": "NRF2; scrambled shRNA‐infected cells, untreated 70%, uninduced 100%", "value": 105, "unit": "%"},
      {"measurement": "BCL2 protein level", "setting": "BCL2", "value": 106, "unit": "%"},
      {"measurement": "GADD45B protein level", "setting": "GADD45B", "value": 111, "unit": "%"},
      {"measurement": "pAKT (S473) expression level", "setting": "pAKT (S473)", "value": 113, "unit": "%"},
      {"measurement": "sarkosyl‐insoluble Tau aggregates by TEM", "setting": "sarkosyl‐insoluble Tau", "value": "reduced Tau aggregates"}
    ]}
  ]
}
